Results from publication PMC5588548, “Suramin Inhibits Osteoarthritic Cartilage Degradation by Increasing Extracellular Levels of Chondroprotective Tissue Inhibitor of Metalloproteinases 3” (Molecular Pharmacology, 2017).

Key:
[1] = test system: HTB94 chondrosarcoma cells; format: cell-based; settings: after 8 hours; TIMP-3 1 nM preincubated with suramin 200 µg/ml; HTB94 cells
Experimental: Cells (HTB94 chondrosarcoma cells, primary porcine chondrocytes, or human osteoarthritic chondrocytes) were plated overnight (6 × 10^5 cells per well of a 12-well plate) in DMEM containing 10% FCS and washed three times in serum-free DMEM.
To evaluate endocytosis of exogenously added TIMP-3, cells were incubated with recombinant TIMP-3 (1 nM in 1.5 ml DMEM with 0.1% FCS) for 0–24 hours. Conditioned media were concentrated by precipitation with trichloroacetic acid [5% (v/v), 4°C, 18 hours]. After centrifugation (13,000 rpm, 4°C, 10 minutes), protein-containing pellets were resuspended in SDS sample buffer (30 µl), electrophoresed (7 µl) on a 10% polyacrylamide gel, and immunoblotted onto polyvinylidene fluoride. After blocking in 5% (m/v) BSA in Tris-buffered saline, TIMP-3 levels were analyzed using an M2 anti-FLAG antibody (Sigma-Aldrich), an alkaline phosphatase–conjugated anti-mouse secondary antibody (Promega, Southampton, UK), and a Western Blue stabilized substrate for alkaline phosphatase (Promega). Immunoblots were analyzed by densitometry using Phoretix 1D densitometry software (TotalLab, Newcastle-upon-Tyne, UK), and TIMP-3 remaining in the medium (mean ± S.D., n = 3) was calculated relative to pixel volume at a t of 0 hours (defined as 100%).

TIMP-3 binding to LRP1 = molecular target: T1, TIMP-3 binding to LRP1 (Homo sapiens, UniProt P35625); assay: TIMP-3 binding to immobilized LRP1 (ELISA); settings: TIMP-3 preincubated with suramin 200 µg/ml, 1 hour, 37°C
T1 construct: purchased BioMac, Leipzig, Germany
T1 sequence (P35625 24-211): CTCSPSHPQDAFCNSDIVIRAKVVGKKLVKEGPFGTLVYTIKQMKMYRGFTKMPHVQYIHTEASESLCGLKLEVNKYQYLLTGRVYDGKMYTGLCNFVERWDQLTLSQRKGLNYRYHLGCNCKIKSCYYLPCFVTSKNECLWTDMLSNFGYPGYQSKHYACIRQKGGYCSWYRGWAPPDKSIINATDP
Experimental: LRP1 (5 nM; BioMac, Leipzig, Germany) was coated (overnight, 4°C) onto medium-binding ELISA plates (Greiner Bio-One, Stonehouse, UK) in 20 mM HEPES, 150 mM NaCl, 5 mM CaCl2, and 0.05% Tween 20, pH 7.4. Wells were blocked with 10% bovine serum albumin (BSA) in Tris HCl, NaCl, and CaCl2 (TNC) buffer (50 mM Tris HCl, pH 7.5, 150 mM NaCl, 10 mM CaCl2, and 0.05% Brij 35). Wells were washed in TNC buffer containing 0.1% Tween 20 after this and every subsequent step. FLAG-tagged human TIMP-3 (0.4–50 nM), either alone or preincubated with suramin (200 μg/ml, 1 hour, 37°C), was applied to wells in TNC buffer containing 5% BSA (3 hours, 25°C). Binding was detected with anti-FLAG M2 primary antibody and anti-mouse horseradish peroxidase–conjugated secondary antibody in the same buffer. 3,3′,5,5′-Tetramethylbenzidine (Becton Dickinson) substrate was added, the reaction was stopped when appropriate by adding 2 N H2SO4, and absorbance at 450 nm was measured using a FLUOstar Omega microplate reader. Data (mean ± S.D., n = 3) were analyzed using Prism 7.0b software.

TIMP-3 mRNA [2] = assay: TIMP-3 mRNA analysis in HTB94 cells (quantitative PCR); format: cell-based; settings: suramin 0–250 µg/ml, 18 hours
Experimental: (§1) HTB94 chondrosarcoma cells or primary human chondrocytes (1 × 10^6 cells) were treated in triplicate with 0–250 µg/ml suramin in serum-free DMEM for 18–48 hours. Total RNA was isolated from cells using an RNeasy mini kit (Qiagen, Crawley, UK) and cDNA was synthesized (reverse transcriptase kit; Applied Biosystems, Foster City, CA). Levels of TIMP-1, TIMP-2, TIMP-3, LRP1, and RPLP0 internal reference mRNA were quantified by real-time polymerase […] chain reaction on a Corbett Rotor-Gene 6000 (Corbett Life Science, Mortlake, NSW, Australia) using TaqMan Fast Universal PCR Master Mix (Applied Biosystems) and TaqMan probes (Applied Biosystems) Hs01092512_g1 for TIMP-1, Hs00234278_m1 for TIMP-2, Hs00165949_m1 for TIMP-3, Hs00233856_m1 for LRP1, and Hs99999902_m1 for RPLP0. The ΔΔ threshold cycle values (mean ± S.D., n = 3 technical replicates) are shown relative to control untreated HTB94 cells (defined as 1).

human OA chondrocytes = assay: Cell viability assay (MTS), human OA chondrocytes; format: cell-based; settings: suramin 0–250 µg/ml, 48 hours
Experimental: (§2) HTB94 chondrosarcoma cells or human OA chondrocytes (10^3 cells per well in 96-well plates) were plated overnight in DMEM with 10% FCS. Cells were washed in serum-free cartilage medium and treated for 48–72 hours with suramin (0–250 µg/ml) or sodium nitroprusside (10 mM) as a control to induce cell death. Cell viability was then assessed using the 3-(4,5-dimethylthiazol-2-yl)-5-(3-carboxymethoxyphenyl)-2-(4-sulfophenyl)-2H-tetrazolium CellTiter Cell Proliferation Assay (Promega) according to the manufacturer’s instructions (mean ± S.D., n = 3).

[3] = test system: primary chondrocytes isolated from human OA cartilage; assay: Accumulation of endogenous TIMP-3 in medium of human OA chondrocytes; format: cell-based; settings: suramin 0–250 µg/ml, 48 hours
Experimental: Cells (HTB94 chondrosarcoma cells, primary porcine chondrocytes, or human osteoarthritic chondrocytes) were plated overnight (6 × 10^5 cells per well of a 12-well plate) in DMEM containing 10% FCS and washed three times in serum-free DMEM. […] Media were harvested, precipitated with trichloroacetic acid, and analyzed by immunoblotting using a rabbit anti–TIMP-3 polyclonal antibody (AB6000; Millipore, Hertfordshire, UK) and an alkaline phosphatase–conjugated anti-rabbit secondary antibody (Promega). TIMP-3 in the medium (mean ± S.D., n = 3) was calculated relative to the pixel volume of untreated cells (defined as 1).

[4] = set-up: method as in Voogd et al., 1993; settings: ref Voogd et al., 1993; cited from earlier work
[5] = test system: HTB94 chondrosarcoma cells; assay: Cell viability assay (MTS), HTB94 cells; format: cell-based; settings: suramin 0–250 µg/ml, 72 hours
Experimental: as §2

TIMP-3 mRNA [6] = assay: TIMP-3 mRNA analysis in human OA chondrocytes (quantitative PCR); format: cell-based; settings: suramin 0–250 µg/ml, 48 hours
Experimental: as §1

## Cc1ccc(C(=O)Nc2ccc(S(=O)(=O)O)c3cc(S(=O)(=O)O)cc(S(=O)(=O)O)c23)cc1NC(=O)c1cccc(NC(=O)Nc2cccc(C(=O)Nc3cc(C(=O)Nc4ccc(S(=O)(=O)O)c5cc(S(=O)(=O)O)cc(S(=O)(=O)O)c45)ccc3C)c2)c1 [suramin]
[1]
  TIMP-3 remaining in the medium: more than 85%
TIMP-3 binding to LRP1
  TIMP-3 binding to immobilized LRP1: abolished
TIMP-3 mRNA [2]
  TIMP-3 mRNA levels: not associated with any significant change
Human OA chondrocytes
  cell viability (MTS): did not affect
Human OA chondrocytes; listed as Suramin
  cell viability (MTS): without any significant change
[3]
  endocytosis of endogenously expressed TIMP-3: inhibited endocytosis
[4]
  oral bioavailability: not orally bioavailable
[5]
  cell viability (MTS): no effect
TIMP-3 mRNA [6]
  TIMP-3 mRNA levels: without any significant change
